Key:
Experiment in all cases: relative viability (nuclei count vs DMSO), 5 days (fraction); higher = more cells survive
NCI-H1563 = system: NCI-H1563
How it was run: (§1)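 Nuclei were stained with Hoechst during a one-step fixation (final 0.05% Triton X-100, 1% formaldehyde, 1 ug/ml Hoechst) carried out 5 days after dosing, then counted on 4× images. The cells, lung cancer lines in 1536-well plates, had been dosed by pin tool the day after seeding with one drug alone or a fixed anchor-drug dose plus five library-drug doses (not always all listed) in √10 steps. Relative viability is the nuclei count in treated wells divided by that in vehicle wells, and each value is the median of duplicate plates.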

NCI-H2342 = system: NCI-H2342
How it was run: as §1

NCI-H1648 = system: NCI-H1648
How it was run: as §1

NCI-H522 = system: NCI-H522
How it was run: as §1

SW 900 = system: SW 900
How it was run: as §1

A549 = system: A549
How it was run: as §1

IA-LM = system: IA-LM
How it was run: as §1

O=C(O)CCCCC(CCSCc1ccccc1)SCc1ccccc1 (configuration not stated) [CPI-613] + Nc1nc2[nH]cc(CCc3ccc(C(=O)N[C@@H](CCC(=O)O)C(=O)O)cc3)c2c(=O)[nH]1 [Pemetrexed] (partner 0.2 µM)
relative viability (NCI-H1563; first compound 5 µM): 0.732
relative viability (NCI-H1563; first compound 15.81 µM): 0.713
relative viability (NCI-H1563; first compound 50 µM): 0.727
relative viability (NCI-H1563; first compound 158.11 µM): 0.631
relative viability (NCI-H1563; first compound 500 µM): 0.394
relative viability (NCI-H2342; first compound 5 µM): 0.743
relative viability (NCI-H2342; first compound 15.81 µM): 0.761
relative viability (NCI-H2342; first compound 50 µM): 0.804
relative viability (NCI-H2342; first compound 158.11 µM): 0.744
relative viability (NCI-H2342; first compound 500 µM): 0.785
relative viability (NCI-H1648; first compound 5 µM): 0.639
relative viability (NCI-H1648; first compound 15.81 µM): 0.623
relative viability (NCI-H1648; first compound 50 µM): 0.823
relative viability (NCI-H1648; first compound 158.11 µM): 0.527
relative viability (NCI-H1648; first compound 500 µM): 0.139
relative viability (NCI-H522; first compound 5 µM): 1.04
relative viability (NCI-H522; first compound 15.81 µM): 1.06
relative viability (NCI-H522; first compound 50 µM): 1.3
relative viability (NCI-H522; first compound 158.11 µM): 0.857
relative viability (NCI-H522; first compound 500 µM): 0.473
relative viability (SW 900; first compound 5 µM): 0.451
relative viability (SW 900; first compound 50 µM): 0.47
relative viability (SW 900; first compound 158.11 µM): 0.372
relative viability (SW 900; first compound 500 µM): 0.0088

O=C(O)CCCCC(CCSCc1ccccc1)SCc1ccccc1 (configuration not stated) [CPI-613] + Nc1ncn([C@H]2C[C@H](O)[C@@H](CO)O2)c(=O)n1 [Decitabine] (partner 2 µM)
relative viability (NCI-H2342; first compound 5 µM): 0.669
relative viability (NCI-H2342; first compound 15.81 µM): 0.656
relative viability (NCI-H2342; first compound 50 µM): 0.838
relative viability (NCI-H2342; first compound 158.11 µM): 0.78
relative viability (NCI-H2342; first compound 500 µM): 0.779
relative viability (NCI-H1648; first compound 5 µM): 0.568
relative viability (NCI-H1648; first compound 15.81 µM): 0.409
relative viability (NCI-H1648; first compound 50 µM): 0.57
relative viability (NCI-H1648; first compound 158.11 µM): 0.4
relative viability (NCI-H1648; first compound 500 µM): 0.172
relative viability (NCI-H522; first compound 5 µM): 0.678
relative viability (NCI-H522; first compound 15.81 µM): 0.585
relative viability (NCI-H522; first compound 50 µM): 0.697
relative viability (NCI-H522; first compound 158.11 µM): 0.627
relative viability (NCI-H522; first compound 500 µM): 0.3
relative viability (SW 900; first compound 5 µM): 0.458
relative viability (SW 900; first compound 50 µM): 0.429
relative viability (SW 900; first compound 158.11 µM): 0.332
relative viability (SW 900; first compound 500 µM): 0.0668
relative viability (A549; first compound 5 µM): 0.284
relative viability (A549; first compound 15.81 µM): 0.195
relative viability (A549; first compound 50 µM): 0.269
relative viability (A549; first compound 158.11 µM): 0.259
relative viability (A549; first compound 500 µM): 0.161

O=C(O)CCCCC(CCSCc1ccccc1)SCc1ccccc1 (configuration not stated) [CPI-613] + O=C(CCCCCCC(=O)Nc1ccccc1)NO [Vorinostat] (partner 1 µM)
relative viability (NCI-H2342; first compound 5 µM): 0.648
relative viability (NCI-H2342; first compound 15.81 µM): 0.629
relative viability (NCI-H2342; first compound 50 µM): 0.721
relative viability (NCI-H2342; first compound 158.11 µM): 0.763
relative viability (NCI-H2342; first compound 500 µM): 0.939
relative viability (NCI-H1648; first compound 5 µM): 0.527
relative viability (NCI-H1648; first compound 15.81 µM): 0.336
relative viability (NCI-H1648; first compound 50 µM): 0.422
relative viability (NCI-H1648; first compound 158.11 µM): 0.142
relative viability (NCI-H1648; first compound 500 µM): 0.0754
relative viability (NCI-H522; first compound 5 µM): 0.841
relative viability (NCI-H522; first compound 15.81 µM): 0.812
relative viability (NCI-H522; first compound 50 µM): 0.833
relative viability (NCI-H522; first compound 158.11 µM): 0.741
relative viability (NCI-H522; first compound 500 µM): 0.244
relative viability (SW 900; first compound 5 µM): 0.512
relative viability (SW 900; first compound 50 µM): 0.555
relative viability (SW 900; first compound 158.11 µM): 0.316
relative viability (SW 900; first compound 500 µM): 0.0227
relative viability (IA-LM; first compound 5 µM): 0.876
relative viability (IA-LM; first compound 15.81 µM): 0.869
relative viability (IA-LM; first compound 50 µM): 0.685
relative viability (IA-LM; first compound 500 µM): 0.937

O=c1[nH]c2ccccc2n1C1CCN(CCCC(c2ccc(F)cc2)c2ccc(F)cc2)CC1 [Pimozide] + CC(=O)Nc1cccc(-n2c(=O)n(C3CC3)c(=O)c3c(Nc4ccc(I)cc4F)n(C)c(=O)c(C)c32)c1 [Trametinib] (partner 0.02 µM)
relative viability (NCI-H2342; first compound 0.08 µM): 0.661
relative viability (NCI-H2342; first compound 0.253 µM): 0.872
relative viability (NCI-H2342; first compound 0.8 µM): 0.676
relative viability (NCI-H2342; first compound 2.53 µM): 0.826
relative viability (NCI-H2342; first compound 8 µM): 0.759
relative viability (NCI-H1648; first compound 0.08 µM): 0.423
relative viability (NCI-H1648; first compound 0.8 µM): 0.34
relative viability (NCI-H1648; first compound 2.53 µM): 0.373
relative viability (NCI-H1648; first compound 8 µM): 0.416
relative viability (NCI-H522; first compound 0.08 µM): 0.738
relative viability (NCI-H522; first compound 0.253 µM): 0.751
relative viability (NCI-H522; first compound 0.8 µM): 0.733
relative viability (NCI-H522; first compound 2.53 µM): 0.746
relative viability (NCI-H522; first compound 8 µM): 0.811
relative viability (SW 900; first compound 0.08 µM): 0.743
relative viability (SW 900; first compound 0.253 µM): 0.801
relative viability (SW 900; first compound 2.53 µM): 0.72
relative viability (SW 900; first compound 8 µM): 0.802

O=c1[nH]c2ccccc2n1C1CCN(CCCC(c2ccc(F)cc2)c2ccc(F)cc2)CC1 [Pimozide] + CC(=O)c1c(C)c2cnc(Nc3ccc(N4CCNCC4)cn3)nc2n(C2CCCC2)c1=O [Palbociclib] (partner 0.5 µM)
relative viability (NCI-H2342; first compound 0.08 µM): 0.573
relative viability (NCI-H2342; first compound 0.253 µM): 0.526
relative viability (NCI-H2342; first compound 0.8 µM): 0.436
relative viability (NCI-H2342; first compound 2.53 µM): 0.484
relative viability (NCI-H2342; first compound 8 µM): 0.507
relative viability (NCI-H1648; first compound 0.08 µM): 0.301
relative viability (NCI-H1648; first compound 0.8 µM): 0.233
relative viability (NCI-H1648; first compound 2.53 µM): 0.282
relative viability (NCI-H1648; first compound 8 µM): 0.31
relative viability (NCI-H522; first compound 0.08 µM): 0.766
relative viability (NCI-H522; first compound 0.253 µM): 0.785
relative viability (NCI-H522; first compound 0.8 µM): 0.94
relative viability (NCI-H522; first compound 2.53 µM): 0.891
relative viability (NCI-H522; first compound 8 µM): 0.901
relative viability (SW 900; first compound 0.08 µM): 0.526
relative viability (SW 900; first compound 0.253 µM): 0.572
relative viability (SW 900; first compound 2.53 µM): 0.511
relative viability (SW 900; first compound 8 µM): 0.443

From the supplement of paper PMC10307832
